# Results published in patent publication US20200407398A1, “Short Proline-Rich Lipopeptide Potentiates Minocycline and Rifampicin Against Multidrug-and Extensively Drug-Resistant Pseudomonas Aeruginosa” (priority 2018, published 2020).
# Square brackets hold non-standard residues; d marks the D form. Peptide text beside a SMILES is read from it. * marks the point of attachment. Lauroyl = CCCCCCCCCCCC(=O)*
# What was measured:
# [1] = tested on: P. aeruginosa 260-97103 (MDR/XDR); experiment: microbe, parasite or virus in culture
# Description: (§1) We evaluated the activity of SPRLPs in combination with fifteen clinically-used antibiotics against P. aeruginosa. Antibiotics tested included fluoroquinolones (moxifloxacin, ciprofloxacin and levofloxacin), aminoglycosides (gentamicin, tobramycin and amikacin), cephalosporins (ceftazidime and cefotaxime), carbapenems (meropenem and doripenem), aztreonam, rifampicin, minocycline, colistin and fosfomycin. The SPRLPs were screened initially at a fixed concentration of 8 μg/mL (5 μM) in combination with antibiotics against wild-type P. aeruginosa PAO1. We assessed potentiation by at least a four-fold absolute MIC reduction of the antibiotic, after which synergism was further validated by a conventional checkerboard assay. A fractional inhibitory concentration (FIC) index of ≤0.5, 0.5<x≤4 or >4 was interpreted as synergistic, indifferent or antagonistic interaction, respectively (31). FIC index was obtained by adding the FIC values of the antibiotic and the SPRLP adjuvant. FIC of antibiotics was calculated by dividing the MIC of the antibiotic in the presence of the adjuvant by the MIC of the antibiotic alone. Similarly, the FIC of adjuvant was calculated via dividing the MIC of the adjuvant in the presence of the antibiotic by the MIC of the adjuvant alone.
# (§2) Isolates used in this study were either obtained from the American Type Culture Collection (ATCC), the Canadian National Intensive Care Unit (CAN-ICU) surveillance study (27) or the Canadian Ward Surveillance (CANWARD) study (28). Clinical isolates belonging to the CAN-ICU and CANWARD studies were recovered from patients suffering a presumed infectious disease entering or admitted in a participating medical center across Canada during the time of study. MDR P. aeruginosa strains in this study refer to those that are resistant to aminoglycosides, fluoroquinolones, cephalosporins, and carbapenems while XDR strains are those that are resistant to aminoglycosides, fluoroquinolones, cephalosporins, carbapenems, aztreonam and penicillin+β-lactamase inhibitor combination (39, 40).
# (§3) Microbroth dilution susceptibility test following the Clinical and Laboratory Standards Institute (CLSI) guidelines (32) was performed to assess the in vitro antibacterial activity of SPRLPs. Overnight grown bacterial cultures were diluted in saline to achieve a 0.5 McFarland turbidity, followed by 1:50 dilution in Mueller-Hinton broth (MHB) for inoculation to a final concentration of 5×10^5 colony forming units/mL. The assay was done on a 96-well plate to which the agents of interest were 2-fold serially diluted in MHB and incubated with equal volumes of inoculum at 37° C. for 18 hours. MIC was determined as the lowest concentration to inhibit visible bacterial growth in form of turbidity, which was confirmed using EMax Plus microplate reader (Molecular Devices, USA) at a wavelength of 590 nm. The well containing MHB broth with or without bacterial cells was used as positive or negative control, respectively.
# (§4) The assay was performed on a 96-well plate, to which the agents of interest was 2-fold serially diluted in working MHB. Prior to serial dilution, SPRLP was added to the working MHB media so that a fixed final concentration of 8 μg/mL (5 μM) SPRLP per well was achieved. To ensure that the assay was working, the MIC determination test of the studied antibiotic (without SPRLP) was included on the same plate. Similar MIC results between the assay comparator and an independent MIC determination test (on a different plate) ensured validity of the synergy test. Overnight grown bacterial cultures were diluted in saline to 0.5 McFarland turbidity, followed by 1:50 dilution in MHB (without SPRLP) and inoculation into each well to a final concentration of approximately 5×10^5 colony forming units/mL. Wells containing only MHB (without SPRLP) with or without bacterial cells were used as positive or negative control, respectively.
# [2] = tested on: P. aeruginosa 101243 (colistin-resistant, MDR/XDR); experiment: microbe, parasite or virus in culture
# Description: as §1, §2, §3, §4
# [3] = tested on: P. aeruginosa 262-101856 (MDR/XDR); experiment: microbe, parasite or virus in culture; conditions: P. aeruginosa 262-101856; for Absolute MIC MIN: MIC of minocycline in the presence of 8 μg/mL (5 μM) lipopeptide; for MIC (agent alone): antibiotic or lipopeptide alone
# Description: as §1, §2, §3, §4
# [4] = tested on: E. coli CAN-ICU 63074 (amikacin-intermediate resistant); assay type: cell-based
# Outline: (§5)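 CLSI broth microdilution with 2-fold serial dilutions in Mueller-Hinton broth, inoculum 5×10^5 CFU/mL, incubated 18 hours at 37° C. MIC taken as lowest concentration with no visible turbidity, confirmed by absorbance at 590 nm.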
# [5] = tested on: A. baumannii CAN-ICU 63169; assay type: cell-based
# Outline: as §5
# [6] = tested on: methicillin-resistant S. aureus ATCC 33592; assay type: cell-based
# Outline: as §5
# [7] = tested on: methicillin-susceptible Staphylococcus epidermidis CANWARD-2008 81388; assay type: cell-based; conditions: methicillin-susceptible CANWARD-2008 81388
# Outline: as §5
# [8] = tested on: E. faecium ATCC 27270; assay type: cell-based
# Outline: as §5
# [9] = tested on: S. aureus ATCC 29213; assay type: cell-based
# Outline: as §5
# [10] = tested on: P. aeruginosa ATCC 27853; assay type: cell-based
# Outline: as §5
# [11] = tested on: K. pneumoniae ATCC 13883; assay type: cell-based
# Outline: as §5
# [12] = tested on: E. coli ATCC 25922; assay type: cell-based
# Outline: as §5
# [13] = tested on: methicillin-resistant S. epidermidis CAN-ICU 61589 (ceftazidime-resistant); assay type: cell-based; conditions: methicillin-resistant CAN-ICU 61589 (ceftazidime-resistant)
# Outline: as §5
# [14] = tested on: E. faecalis ATCC 29212; assay type: cell-based
# Outline: as §5
# [15] = tested on: E. coli CANWARD-2011 97615 (gentamicin-, tobramycin-, ciprofloxacin-resistant) aac(3′)iia; assay type: cell-based
# Outline: as §5
# [16] = tested on: S. maltophilia CAN-ICU 62584; assay type: cell-based
# Outline: as §5
# [17] = P. aeruginosa 260-97103, degree of minocycline potentiation in the presence of 8 μg/mL (5 μM) lipopeptide
# [18] = P. aeruginosa 260-97103, degree of rifampicin potentiation in the presence of 8 μg/mL (5 μM) lipopeptide
# [19] = P. aeruginosa 101243 (colistin-resistant), degree of minocycline potentiation in the presence of 8 μg/mL (5 μM) lipopeptide
# [20] = P. aeruginosa 101243 (colistin-resistant), degree of rifampicin potentiation in the presence of 8 μg/mL (5 μM) lipopeptide
# [21] = degree of minocycline potentiation in the presence of 8 μg/mL (5 μM) lipopeptide
# [22] = degree of rifampicin potentiation in the presence of 8 μg/mL (5 μM) lipopeptide
compound,measurement,setting,value
CCCCCCCCCCCC(=O)N1CCC[C@@H]1C(=O)N[C@H](CCCNC(=N)N)C(=O)N1CCC[C@@H]1C(=O)N[C@H](CCCNC(=N)N)C(=O)N1CCC[C@@H]1C(=O)N[C@H](CCCNC(=N)N)C(=O)N1CCC[C@@H]1C(N)=O [C12-prp] (Lauroyl-[dP][dR][dP][dR][dP][dR][dP]-NH2),Absolute MIC MIN,"[1]; P. aeruginosa 260-97103, MIC of minocycline in the presence of 8 μg/mL (5 μM) lipopeptide",2 µg/mL
same,Absolute MIC RMP,"[1]; P. aeruginosa 260-97103, MIC of rifampicin in the presence of 8 μg/mL (5 μM) lipopeptide",4 µg/mL
same,MIC (agent alone),"[1]; P. aeruginosa 260-97103, antibiotic or lipopeptide alone",>128 µg/mL
same,Potentiation,[1]; [17],8-fold
same,Potentiation,[1]; [18],4-fold
same,Absolute MIC MIN,"[2]; P. aeruginosa 101243 (colistin-resistant), MIC of minocycline in the presence of 8 μg/mL (5 μM) lipopeptide",2 µg/mL
same,Absolute MIC RMP,"[2]; P. aeruginosa 101243 (colistin-resistant), MIC of rifampicin in the presence of 8 μg/mL (5 μM) lipopeptide",0.5 µg/mL
same,MIC (agent alone),"[2]; P. aeruginosa 101243 (colistin-resistant), antibiotic or lipopeptide alone",>128 µg/mL
same,Potentiation,[2]; [19],2-fold
same,Potentiation,[2]; [20],8-fold
same,Absolute MIC MIN,[3],16 µg/mL
same,Absolute MIC RMP,[3]; MIC of rifampicin in the presence of 8 μg/mL (5 μM) lipopeptide,256 µg/mL
same,MIC (agent alone),[3],>128 µg/mL
same,Potentiation,[3]; [21],4-fold
same,Potentiation,[3]; [22],2-fold
"CCCCCCCCCCCC(=O)N1CCC[C@H]1C(=O)N[C@@H](CCCNC(=N)N)C(=O)N1CCC[C@H]1C(=O)N[C@@H](CCCNC(=N)N)C(=O)N1CCC[C@H]1C(=O)N[C@@H](CCCNC(=N)N)C(=O)N1CCC[C@H]1C(N)=O [Compound C12-PRP, CH3(CH2)10CO-PRPRPRP-NH2] (Lauroyl-PRPRPRP-NH2)",MIC,[4],>128 µg/mL
same,MIC,[5],>128 µg/mL
same,MIC,[6],>128 µg/mL
same,MIC,[7],32 µg/mL
same,MIC,[8],128 µg/mL
same,MIC,[9],128 µg/mL
same,MIC,[10],>128 µg/mL
same,MIC,[11],>128 µg/mL
same,MIC,[12],>128 µg/mL
same,MIC,[13],128 µg/mL
same,MIC,[14],>128 µg/mL
same,MIC,[15],>128 µg/mL
same,MIC,[16],>128 µg/mL
same,MIC (agent alone),[1]; 260-97103 (MDR/XDR),128 µg/mL
same,Potentiation,[1]; [17],16-fold
same,Potentiation,[1]; [18],8-fold
same,FIC index,"[1]; P. aeruginosa 260-97103, lipopeptide in combination with minocycline (MIN)",0.12
same,FIC index,"[1]; P. aeruginosa 260-97103, lipopeptide in combination with rifampicin (RMP)",0.16
same,MIC (agent alone),"[2]; 101243 (colistin-resistant, MDR/XDR)",128 µg/mL
same,Potentiation,[2]; [19],4-fold
same,Potentiation,[2]; [20],32-fold
same,FIC index,"[2]; P. aeruginosa 101243 (colistin-resistant), lipopeptide in combination with minocycline (MIN)",0.31
same,FIC index,"[2]; P. aeruginosa 101243 (colistin-resistant), lipopeptide in combination with rifampicin (RMP)",0.09
same,Absolute MIC MIN,[3],16 µg/mL
same,MIC (agent alone),[3],>128 µg/mL
same,Potentiation,[3]; [21],4-fold
same,Potentiation,[3]; [22],none
